In US11433040B2, “Methods for modifying endoplasmic reticulum processing of protein” (priority 2017, dated 2022):
Values joined by “and” are separate entries in the source; they are usually repeats but may differ in a detail not shown here. Equal entries are not always repeated.

How the values were obtained:
[1] = tested on: G544V-mutant LDL receptor; assay: Cell-based trafficking assay: restoration of glycosylation/trafficking of mutant LDL receptor in CHO cells; set-up: species or system human; conditions: for EC50: CHO cells expressing G544V-mutant LDL receptor, 2 hours at 37° C., value ± standard error, read-out: EC50, acquisition of mutant LDL receptor glycosylation
Description: (§1) T-Rex-CHO-K1 cloned cell lines expressing wild-type and mutant LDL receptor were cultured as described in Sorensen et al. (2006) and Tveten et al. (2007), and according to the manufacturer's protocols (Thermo Fisher Scientific). The expression in CHO cells of G544V-mutant or wildtype LDL receptor protein was induced with 1 μg/mL tetracycline for 24 h prior to experiments with 4-PBA or 4-PBA analogs (Tveten et al. (2007)). To compare pharmacological potency of 4-PBA analogs, cells were incubated with the compounds for 2 hours at 37° C. in 12-well 22 mm plates (Corning Costar #3513). For experiments concerning the extracellular secretion of GRP94 (FIG. 5), the incubations with 4-PBA were extended to 24 hours. Cells were broken in lysis buffer (1% (v/v) Triton X-100, 150 mM NaCl, 10 mM EDTA, 50 mM Tris-HCl pH 7.5) and cleared by centrifugation (15,000 g for 15 minutes). Cellular protein concentration was measured using “Protein Assay Kit II” (Bio-Rad) with bovine serum albumin as standard. Lysates were added to Laemmli sample buffer (New England BioLabs) containing 130 mM dithiothreitol and heated for 15 min at 55° C. Cell medium (containing secreted proteins) was added to Laemmli sample buffer containing 5% β-mercaptoethanol and boiled for 5 min. Samples were run on 4-15% Tris/HCl Criterion gels (Bio-Rad) followed by immunoblotting.
Chemiluminescence signals from western blots for the glycosylated (160 kDa) form of G544V mutant LDL receptor were quantified as a percentage of total LDL receptor protein (glycosylated+unglycosylated bands). Data at high concentrations of 4-PBA analogs, which show inhibition of LDL receptor trafficking, were omitted. Data from individual experiments were normalized (to obtain maximal response=100%), so that data from replicate experiments (n=4-5) could be averaged. Logistic fitting to the dose-response data was carried out with program Ultrafit (Elsevier Biosoft). […] Data from fluorescence polarization titrations (FIGS. 6(E)-6(G)) were analyzed with Ultrafit, and IC50 values were determined from plots using nonlinear curve fitting. […] IC50 values were converted to true affinities, Ki, using the approach of (Nikolovska-Coleska et al., 2004), and these are used in the scatter plot, FIG. 6(H).
A system comprising a CHO (T-Rex-CHO-K1) cell clone expressing the G544V-mutant human LDL receptor under a tetracycline-inducible promoter was used (see General Methods) to measure the packaging of resident proteins and a misfolded mutant LDL receptor into COPII vesicles budded from permeabilized cells. The G544V-mutant human LDL receptor is a naturally occurring transport-defective (class 2) mutant LDL receptor with a point mutation in the luminal β-propeller domain that causes ER trapping with chaperone association. 4-PBA has been show to restore transportation of G544V-mutant human LDL receptor to the plasma membrane (Tveten et al. (2007)).
CHO cells expressing G544V-mutant LDL receptor were incubated with the indicated concentrations of 4-PBA analogs for 2 hours at 37° C. Cell lysates were analyzed by immunoblotting for the appearance of 160 kDa mature glycosylated LDL receptor (labeling indicates the position of 160 kDa mature glycosylated and 120 kDa precursor forms of LDL receptor). Gamma correction was applied to the immunoblot images.

[2] = target: T1, human Sec24a (Homo sapiens, UniProt O95486); assay: Fluorescence polarization assay: displacement of 5-Fam-[…] from Sec24a; format: binding; conditions: fluorescence polarization at 22° C.; value ± standard error; read-out: IC50, displacement of fluorescent probe 5-Fam-QIYTDIEANR from Sec24a
T1 construct: His6 (TEV-cleavable) (N, cleaved yes); made in house; host or cells: High Five insect cells (baculovirus)
T1 sequence (O95486 341-1093): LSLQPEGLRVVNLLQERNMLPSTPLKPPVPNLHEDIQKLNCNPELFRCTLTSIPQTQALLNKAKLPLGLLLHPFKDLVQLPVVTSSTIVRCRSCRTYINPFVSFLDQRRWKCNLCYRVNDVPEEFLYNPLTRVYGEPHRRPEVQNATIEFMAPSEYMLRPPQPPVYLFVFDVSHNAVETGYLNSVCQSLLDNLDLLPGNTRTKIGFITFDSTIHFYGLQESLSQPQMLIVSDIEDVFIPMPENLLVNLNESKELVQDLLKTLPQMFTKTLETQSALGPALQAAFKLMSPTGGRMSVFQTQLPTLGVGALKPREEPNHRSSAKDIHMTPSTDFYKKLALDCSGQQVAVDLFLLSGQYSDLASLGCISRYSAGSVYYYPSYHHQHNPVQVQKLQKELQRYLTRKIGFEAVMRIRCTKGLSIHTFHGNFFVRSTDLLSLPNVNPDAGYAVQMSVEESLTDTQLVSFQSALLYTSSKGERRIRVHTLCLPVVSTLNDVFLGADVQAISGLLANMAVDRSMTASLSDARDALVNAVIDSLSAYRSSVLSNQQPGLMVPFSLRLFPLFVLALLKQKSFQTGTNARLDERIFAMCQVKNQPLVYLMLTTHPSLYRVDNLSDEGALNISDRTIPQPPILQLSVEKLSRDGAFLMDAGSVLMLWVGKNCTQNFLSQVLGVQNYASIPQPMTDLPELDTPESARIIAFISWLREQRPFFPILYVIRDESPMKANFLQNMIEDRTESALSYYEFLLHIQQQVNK

[3] = target: T2, COPII coat proteins (Sec23a/24d) (Homo sapiens, UniProt O94855); assay: In vitro COPII budding assay with permeabilized CHO cells; format: biochemical, H. sapiens; conditions: 10 mM 4-PBA
T2 construct: Sec23a/Sec24d (full-length protein) for COPII budding assays; made in house; host or cells: High Five insect cells (Sec23a/24d, Sec13a/31a); E. coli BL21(DE3) (Sar1a); added to digitonin-permeabilized T-Rex-CHO-K1 cells
T2 sequence (O94855 whole entry): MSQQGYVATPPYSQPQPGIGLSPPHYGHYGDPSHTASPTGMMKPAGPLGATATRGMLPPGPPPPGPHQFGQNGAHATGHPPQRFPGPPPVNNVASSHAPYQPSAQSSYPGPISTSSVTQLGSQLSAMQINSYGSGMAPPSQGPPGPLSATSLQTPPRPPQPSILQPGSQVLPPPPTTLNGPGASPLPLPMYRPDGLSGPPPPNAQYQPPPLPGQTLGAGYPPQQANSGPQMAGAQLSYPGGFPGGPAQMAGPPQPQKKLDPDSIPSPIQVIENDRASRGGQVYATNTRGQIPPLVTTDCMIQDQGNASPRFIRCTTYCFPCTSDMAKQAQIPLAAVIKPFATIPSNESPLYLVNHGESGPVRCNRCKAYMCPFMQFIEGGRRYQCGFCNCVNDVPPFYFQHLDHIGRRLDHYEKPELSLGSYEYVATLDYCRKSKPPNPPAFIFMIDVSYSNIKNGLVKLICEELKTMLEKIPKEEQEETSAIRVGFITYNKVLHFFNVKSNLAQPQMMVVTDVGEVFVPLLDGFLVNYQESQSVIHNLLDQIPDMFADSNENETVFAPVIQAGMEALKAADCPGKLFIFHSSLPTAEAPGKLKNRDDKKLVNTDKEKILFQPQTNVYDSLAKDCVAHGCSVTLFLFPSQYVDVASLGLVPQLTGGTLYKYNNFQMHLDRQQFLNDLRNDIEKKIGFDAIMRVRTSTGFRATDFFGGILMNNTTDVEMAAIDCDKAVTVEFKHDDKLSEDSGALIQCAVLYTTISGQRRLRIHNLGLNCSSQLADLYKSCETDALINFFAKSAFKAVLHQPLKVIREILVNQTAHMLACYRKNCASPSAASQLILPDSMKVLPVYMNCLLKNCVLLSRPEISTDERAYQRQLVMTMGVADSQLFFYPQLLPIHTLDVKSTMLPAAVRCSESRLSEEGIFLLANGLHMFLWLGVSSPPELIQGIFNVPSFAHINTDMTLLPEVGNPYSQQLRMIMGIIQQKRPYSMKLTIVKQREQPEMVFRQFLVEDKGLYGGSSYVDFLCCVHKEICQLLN
T2 sequence (Q15436 whole entry partner): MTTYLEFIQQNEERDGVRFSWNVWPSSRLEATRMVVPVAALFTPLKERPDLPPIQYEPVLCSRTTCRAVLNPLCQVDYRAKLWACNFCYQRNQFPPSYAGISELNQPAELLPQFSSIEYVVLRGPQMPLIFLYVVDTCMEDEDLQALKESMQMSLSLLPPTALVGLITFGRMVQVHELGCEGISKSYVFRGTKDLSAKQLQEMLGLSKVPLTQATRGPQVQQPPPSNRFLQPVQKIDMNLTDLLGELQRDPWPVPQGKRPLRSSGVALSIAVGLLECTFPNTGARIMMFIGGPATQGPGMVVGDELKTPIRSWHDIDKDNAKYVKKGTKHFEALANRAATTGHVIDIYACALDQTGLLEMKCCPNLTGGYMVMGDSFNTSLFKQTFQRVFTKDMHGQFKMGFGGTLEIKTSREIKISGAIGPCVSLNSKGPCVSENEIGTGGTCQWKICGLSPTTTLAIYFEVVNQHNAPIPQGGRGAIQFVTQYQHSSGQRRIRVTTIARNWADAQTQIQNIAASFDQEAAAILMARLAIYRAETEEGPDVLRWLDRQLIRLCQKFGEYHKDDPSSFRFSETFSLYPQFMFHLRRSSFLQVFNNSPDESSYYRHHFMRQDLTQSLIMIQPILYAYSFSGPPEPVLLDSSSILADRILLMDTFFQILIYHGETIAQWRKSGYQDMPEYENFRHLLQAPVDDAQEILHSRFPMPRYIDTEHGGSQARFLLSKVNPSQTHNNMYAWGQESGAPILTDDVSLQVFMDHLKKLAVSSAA
Description: In vitro COPII budding reactions used permeabilized cells prepared from the T-Rex-CHO-K1 parent line and from the clone that expresses mutant LDL receptor. Permeabilization was carried out as described in Mancias and Goldberg (2008) with modifications. Two culture dishes (150 mm) of cells were prepared with cells at no greater than 60% confluence. Cells were washed with 20 ml PBS at 37° C. and then trypsinized with 2 ml of Trypsin-EDTA (0.05%, Gibco) for 1 min at 37° C.; 100 μl of Soybean Trypsin Inhibitor (2 mg/ml; Sigma) was added to each culture plate. Next, 5.5 ml ice-cold KHM buffer (110 mM KOAc, 20 mM Hepes pH 7.2, 2 mM magnesium acetate) was added per plate, and cells were transferred to a 15 ml Falcon tube and pelleted gently (250 g for 3 min at 4° C.). The supernatant was aspirated and the cells re-suspended in 6 ml ice-cold KHM buffer. To permeabilize the cells, 6 μl digitonin stock solution (40 mg/ml in dimethyl sulfoxide) was added, cells were mixed by inversion and incubated on ice for 5 minutes. To terminate permeabilization, cells were diluted to 14 ml with KHM buffer and immediately pelleted at 250 g for 3 min at 4° C. […] The protein concentration was measured using protein assay kit (Bio-Rad) with BSA as standard; routinely, the measurement is in the range 4-5 mg/ml. […]

[4] = tested on: GRP94; format: cell-based
Description: as §1
[…] The presence of KDEL tagged (SEQ ID NO: 3) luminal chaperone GRP94 inside and outside cells was measured.

[5] = target: T3, Sec23a/Sec24a⋅Sec22b (Homo sapiens, UniProt O95486); assay: Crystal soaking and X-ray difference Fourier maps; format: binding; conditions: crystals soaked at 1, 15 and 50 mM 4-PBA
T3 construct: His6 (TEV-cleavable) (N, cleaved yes); made in house; host or cells: High Five insect cells (Sec23a/Sec24a); E. coli (Sec22b)
T3 sequence (Q15436 whole entry partner, one chain of several): as the sequence (Q15436 whole entry partner) above
T3 sequence (O75396 1-195 partner limits assumed, one chain of several): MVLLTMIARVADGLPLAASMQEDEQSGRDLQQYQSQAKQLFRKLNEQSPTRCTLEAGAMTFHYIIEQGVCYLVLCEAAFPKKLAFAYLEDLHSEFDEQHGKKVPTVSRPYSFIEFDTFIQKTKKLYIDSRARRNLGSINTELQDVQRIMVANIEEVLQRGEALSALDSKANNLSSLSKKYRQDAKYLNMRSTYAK
Description: The Sec23a/Sec24a⋅Sec22b complex was crystallized as described in Mancias and Goldberg (2007) from a solution comprising 10% (w/v) PEG 4000, 500 mM Na acetate and 50 mM Tris-HCl pH 7.9. Crystals were transferred into a soaking buffer of 10% (w/v) PEG 4000, 600 mM NaCl, 50 mM Tris-HCl buffer, pH 7.9. Either 4-PBA (0-50 mM) or 5 mM ΦC signal peptide was added to the crystal containing solution, and the ligand soaking proceeded for five hours at 22° C. Crystals were then transferred to an equivalent ligand-containing buffer with additional 24% ethylene glycol cryo-protectant, and were flash frozen in liquid nitrogen. Crystals treated in this manner diffracted synchrotron X-rays to 2.5-2.8 Å resolution.
X-ray diffraction data were collected at 0.979 Å wavelength on beamline ID-24C or ID-24E of the Advanced Photon Source, Argonne National Laboratory. Data were processed with the program HKL2000 (Otwinowski and Minor (1997); see Tables 1 and 2). Structure refinement was carried out using Phenix (Adams et al. (2010)), initially by rigid-body improvement, followed by positional refinement, based on the published coordinates of Sec23a/Sec24a⋅Sec22b (PDB 2NUT; Mancias and Goldberg (2007)). Models for […] signal peptides or 4-PBA were not included in refinements prior to the creation of FIG. 1, to eliminate potential phase bias. […]

Row | SMILES | EC50 [1] | IC50 [2] [mM] | other results
1 | O=C(O)CCc1ccccc1 [3-PPA, 3-phenylpropionate] | 7.48 ± 0.68 mM | 4.11 ± 0.34 | 
2 | O=C(O)CCCc1ccccc1 [4-PBA, 4-phenylbutyrate] | 6.37 mM and 6.4 mM | 3.66 ± 0.22 | restored trafficking of mutant LDL receptor (share of the receptor) ([1]; 10 mM 4-PBA applied to cells): ≤ 25%; packaging of ER residents and mutant LDL receptor into COPII vesicles [3]: significant enrichment; reduction in the packaging rate of p24 proteins and ERGIC-53 [3]: 50%; secretion of GRP94 from CHO cells ([4]; 0-40 mM 4-PBA, 24 hours): dose-dependent; cell lysis ([4]; 45 mM 4-PBA, highest concentration): cell lysis was detected; 4-PBA concentration of maximal GRP94 secretion ([4]; 24 hours at 37° C., ER stressed and ER unstressed CHO cells): 20 mM; 4-PBA concentration at which unfolded protein response (UPR) was attenuated ([4]; CHO cells expressing G544V-mutant LDL receptor, 24 hours at 37° C.): 10 to 20 mM; binding to the B site of Sec24a [5]: clear evidence for binding
3 | O=C(O)CCCCc1ccccc1 [5-PVA, 5-phenylvalerate] | 3.36 ± 0.42 mM | 0.99 ± 0.08 | 
4 | O=C(O)CCCc1ccc(O)cc1 [Hydroxy-PBA, 4-(4-hydroxyphenyl)butyrate] | 10.6 ± 0.4 mM | 5.04 ± 0.69 | 
5 | O=C(O)CCc1ccc(O)cc1 [Hydroxy-PPA, 3-(4-hydroxyphenyl)propionate] | 21.7 ± 1.03 mM | 9.22 ± 0.94 | 
6 | COc1ccc(CCCC(=O)O)cc1 [Methoxy-PBA, 4-(4-methoxyphenyl)butyrate] | 8.63 ± 0.98 mM | 4.14 ± 0.7 | 
7 | Cc1ccc(CCCC(=O)O)cc1 [Tolyl-BA, 4-(4-tolyl)butyrate] | 4.89 ± 0.24 mM | 1.7 ± 0.16 | 
